Read-outs that look alike come from different tables or passages of the source.
How the values were obtained:
Type in all cases: biochemical
OATA L57C/W58L/I261A [1] = tested on: OATA L57C/W58L/I261A
OATA W58L [2] = conditions: pH 7
OATA W58M = conditions: pH 7
OATA W58I = conditions: pH 7
OATA W58V = conditions: pH 7
OATA W58A [3] = conditions: pH 7
OATA W58L [4] = tested on: OATA W58L
OATA L57A [5] = tested on: OATA L57A
OATA L57A [6] = tested on: OATA L57A; remark: listed apart in the source
OATA L57A/W58A/V154A [7] = tested on: OATA L57A/W58A/V154A
OATA L57A/W58A [8] = tested on: OATA L57A/W58A
OATA L57A/W58A/V154A [9] = tested on: OATA L57A/W58A/V154A; remark: listed apart in the source
OATA L57A/W58A [10] = tested on: OATA L57A/W58A; remark: listed apart in the source
OATA W58A [11] = tested on: OATA W58A
OATA W58L [12] = tested on: OATA W58L; remark: listed apart in the source
OATA W58L [13] = tested on: OATA W58L; remark: listed apart in the source
OATA W58A [14] = tested on: OATA W58A; remark: listed apart in the source
OATA W58D/I261A = tested on: OATA W58D/I261A
OATA L57Q/W58N/I261L = tested on: OATA L57Q/W58N/I261L
OATA L57C/W58L/I261A [15] = tested on: OATA L57C/W58L/I261A; remark: listed apart in the source

Question: Which results are given for `CC(=O)CCc1ccccc1` [Ketone 1f, benzylacetone]?
Answer: Relative activity, OATA L57C/W58L/I261A (OATA L57C/W58L/I261A [1]): 6,330%; Relative activity to acetophenone, OATA W58L (OATA W58L [2]): 277%; Relative activity to acetophenone, OATA W58M (OATA W58M): 178%; Relative activity to acetophenone, OATA W58I (OATA W58I): 125%; Relative activity to acetophenone, OATA W58V (OATA W58V): 193%; Relative activity to acetophenone, OATA W58A (OATA W58A [3]): 219%; Conversion (%) OATAW58L (OATA W58L [4]): 93%; Conversion, preparative scale (OATA W58L [4]): 92%; Relative activity, OATA L57A (OATA L57A [5]): 439%

Question: What does the source list for `CCCCCCC(C)=O` [Ketone 1l, 2-octanone]?
Answer: Relative activity, OATA L57C/W58L/I261A (OATA L57C/W58L/I261A [1]): 13,757%; Relative activity to acetophenone, OATA W58L (OATA W58L [2]): 209%; Relative activity to acetophenone, OATA W58M (OATA W58M): 81%; Relative activity to acetophenone, OATA W58I (OATA W58I): 73%; Relative activity to acetophenone, OATA W58V (OATA W58V): 140%; Relative activity to acetophenone, OATA W58A (OATA W58A [3]): 122%; Conversion (%) OATAW58L (OATA W58L [4]): 91%

Question: Which results are given for `CCCCC(=O)C(=O)O` [2-oxohexanoic acid]?
Answer: Relative activity, OATA L57A (OATA L57A [6]): 15%; Relative activity, OATA L57A/W58A/V154A (OATA L57A/W58A/V154A [7]): 114%; Relative activity, OATA L57A/W58A (OATA L57A/W58A [8]): 49%

Question: With `CC[C@H](N)c1ccccc1` [(S)-α-ethylbenzylamine] as the molecule, how does the “Relative activity, OATA L57A/W58A/V154A” value (OATA L57A/W58A/V154A [9]) read?
Answer: Its value is 707%.

Question: And the “Relative activity, OATA L57A/W58A” value (OATA L57A/W58A [10])?
Answer: The value was 202%.

Question: And the “Relative reactivity, OATA W58A” value (OATA W58A [11])?
Answer: The value was 44%.

Question: And the “Relative reactivity, OATA W58L” value (OATA W58L [12])?
Answer: Its value is 20%.

Question: How did the “Relative activity, OATA L57C/W58L/I261A” value (OATA L57C/W58L/I261A [1]) turn out when `COc1ccc(C(C)=O)cc1` [Ketone 1e, 4-methoxyacetophenone] was run?
Answer: Its value is 4,017%.

Question: And the “Relative activity to acetophenone, OATA W58L” value (OATA W58L [2])?
Answer: The value was 34%.

Question: And the “Relative activity to acetophenone, OATA W58M” value (OATA W58M)?
Answer: Its value is 42%.

Question: And the “Relative activity to acetophenone, OATA W58I” value (OATA W58I)?
Answer: Its value is 38%.

Question: And the “Relative activity to acetophenone, OATA W58V” value (OATA W58V)?
Answer: The value was 30%.

Question: And the “Relative activity to acetophenone, OATA W58A” value (OATA W58A [3])?
Answer: The value was 30%.

Question: Which “Relative activity, OATA L57A” value (OATA L57A [6]) does the source give for `CC(=O)C(=O)O` [pyruvate, pyruvic acid] here?
Answer: Its value is 77%.

Question: And the “Relative activity, OATA L57A/W58A/V154A” value (OATA L57A/W58A/V154A [7])?
Answer: The value was 1,190%.

Question: And the “Relative activity, OATA L57A/W58A” value (OATA L57A/W58A [8])?
Answer: The value was 707%.

Question: What about the “Fold-increase in kcat/KM” value (OATA W58L [13]) of the same molecule?
Answer: The value was 0.41.

Question: What about the “decrease in specificity constant (kcat/KM)” value (OATA W58L [13]) of the same molecule?
Answer: The value was 60%.

Question: What about the “fold increase in turnover number (kcat)” value (OATA W58L [13]) of the same molecule?
Answer: Its value is 7.1.

Question: What about the “weaker binding, fold decrease in KM as printed” value (OATA W58L [13]) of the same molecule?
Answer: The value was 17.5.

Question: With `CCC[C@H](N)c1ccccc1` [(S)-α-propylbenzylamine] as the molecule, how does the “Relative activity, OATA L57A/W58A/V154A” value (OATA L57A/W58A/V154A [9]) read?
Answer: The value was 749%.

Question: What about the “Relative activity, OATA L57A/W58A” value (OATA L57A/W58A [10]) of the same molecule?
Answer: Its value is 240%.

Question: And the “Relative reactivity, OATA W58A” value (OATA W58A [11])?
Answer: Its value is 10%.

Question: What about the “relative activity to (S)-α-MBA measured with OATA WT, OATA W58A” value (OATA W58A [14]) of the same molecule?
Answer: The value was 20%.

Question: And the “Relative reactivity, OATA W58L” value (OATA W58L [12])?
Answer: Its value is 2%.

Question: With `CC(C)C(=O)C(=O)O` [3-methyl-2-oxobutyric acid] as the molecule, how does the “Relative activity, OATA L57A/W58A/V154A” value (OATA L57A/W58A/V154A [7]) read?
Answer: The value was 11%.

Question: Which “Relative activity, OATA L57A” value (OATA L57A [6]) does the source give for `CCCCCCC(=O)C(=O)O` [2-oxooctanoic acid] here?
Answer: The value was 2%.

Question: What about the “Relative activity, OATA L57A/W58A/V154A” value (OATA L57A/W58A/V154A [7]) of the same molecule?
Answer: Its value is 21%.

Question: And the “Relative activity, OATA L57A/W58A” value (OATA L57A/W58A [8])?
Answer: Its value is 7%.

Question: With `CCCC(C)=O` [Ketone 1j, 2-pentanone] as the molecule, how does the “Relative activity to acetophenone, OATA W58L” value (OATA W58L [2]) read?
Answer: The value was 141%.

Question: And the “Relative activity to acetophenone, OATA W58M” value (OATA W58M)?
Answer: The value was 25%.

Question: And the “Relative activity to acetophenone, OATA W58I” value (OATA W58I)?
Answer: Its value is 21%.

Question: And the “Relative activity to acetophenone, OATA W58V” value (OATA W58V)?
Answer: Its value is 28%.

Question: What about the “Relative activity to acetophenone, OATA W58A” value (OATA W58A [3]) of the same molecule?
Answer: The value was 15%.

Question: For `NCc1ccccc1` [Benzylamine], which “Relative activity, OATA W58D/I261A” value (OATA W58D/I261A) is on record?
Answer: The value was 17%.

Question: And the “Relative activity, OATA L57Q/W58N/I261L” value (OATA L57Q/W58N/I261L)?
Answer: The value was 123%.

Question: What about the “Relative reactivity, OATA W58A” value (OATA W58A [11]) of the same molecule?
Answer: Its value is 50%.

Question: And the “Relative reactivity, OATA W58L” value (OATA W58L [12])?
Answer: The value was 49%.

Question: What about the “Relative activity, OATA L57C/W58L/I261A” value (OATA L57C/W58L/I261A [15]) of the same molecule?
Answer: Its value is 792%.

Question: For `CC(C)N` [Isopropylamine], which “Fold-increase in kcat/KM” value (OATA W58L [13]) is on record?
Answer: Its value is 8.6.

Question: And the “fold decrease in KM (tighter binding)” value (OATA W58L [13])?
Answer: The value was 8.9.

Question: What about the “Relative activity, OATA L57Q/W58N/I261L” value (OATA L57Q/W58N/I261L) of the same molecule?
Answer: The value was 23%.

Question: And the “Relative reactivity, OATA W58A” value (OATA W58A [11])?
Answer: Its value is 28%.

Question: And the “Relative reactivity, OATA W58L” value (OATA W58L [12])?
Answer: The value was 72%.

Question: And the “Relative activity, OATA L57C/W58L/I261A” value (OATA L57C/W58L/I261A [15])?
Answer: Its value is 8%.

Question: Which results are given for `CCCCC(C)=O` [Ketone 1k, 2-hexanone]?
Answer: Relative activity to acetophenone, OATA W58L (OATA W58L [2]): 281%; Relative activity to acetophenone, OATA W58M (OATA W58M): 57%; Relative activity to acetophenone, OATA W58I (OATA W58I): 54%; Relative activity to acetophenone, OATA W58V (OATA W58V): 62%; Relative activity to acetophenone, OATA W58A (OATA W58A [3]): 52%; Conversion (%) OATAW58L (OATA W58L [4]): 93%

Question: For `CCC(=O)C(=O)O` [2-oxobutanoic acid], which “Relative activity, OATA L57A” value (OATA L57A [6]) is on record?
Answer: The value was 34%.

Question: And the “Relative activity, OATA L57A/W58A/V154A” value (OATA L57A/W58A/V154A [7])?
Answer: Its value is 852%.

Question: And the “fold increase in reaction rate compared to OATA L57A” value (OATA L57A/W58A/V154A [7])?
Answer: Its value is 25.

Question: And the “Relative activity, OATA L57A/W58A” value (OATA L57A/W58A [8])?
Answer: Its value is 290%.

Question: What about the “fold increase in reaction rate compared to OATA L57A” value (OATA L57A/W58A [8]) of the same molecule?
Answer: Its value is 8.
